Measured values published in patent publication US8808702B2, “Sulfide, sulfoxide and sulfone chalcone analogues, derivatives thereof and therapeutic uses thereof” (Temple University-of the Commonwealth System of Higher …, priority 2006, dated 2014).

Key:
[1] = system: K562 (chronic myelogenous leukaemia); assay: Effect of compounds on tumor cell lines (assay of Latham et al.), K562; type: cell-based; conditions: K562 cells, 96 hours after treatment, 1 μM to 100 μM; read-out: K 562 potency (IC50)
Method: (§1) The effect of the compounds of the invention on tumor cells was determined by the assay described by Latham et al., Oncogene 12:827-837 (1996). Tumor cells K562 (chronic myelogenous leukaemia) or DU145 (prostate cancer) were plated in 12-well dishes at a cell density of 2.5×10^4 cells well. The plated cells were treated 24 hours later with a compound of the invention dissolved in DMSO at multiple concentrations ranging from 1 μM to 100 μM. The plates were examined 96 hours later under an inverted microscope, Olympus CK-2 using an 10× objective, and compound activity was noted by physical observation. When necessary, the total number of viable cells was determined by trypsinizing the wells and counting the number of viable cells, as determined by trypan blue exclusion, using a hemacytometer.
(§2) The representative compounds listed in Tables 1-5 are shown by way of illustration, and are not intended to limit the scope of the invention. The compounds are prepared and tested by methods based on those described above, except that the compound of Table 5 was dissolved in DMSO at multiple concentrations ranging from 0.1 μM to 100 μM

DU145 (prostate cancer) = assay: Effect of compounds on tumor cell lines (assay of Latham et al.), DU145; type: cell-based; conditions: DU145 cells, 96 hours after treatment, 1 μM to 100 μM; read-out: DU 145 potency (IC50)
Method: as §1, §2

Row | Structure (SMILES) | IC50 [1] [µM] | IC50 (DU145 (prostate cancer)) [µM]
1 | O=C(C(=Cc1c[nH]c2ccc(Br)cc12)SCc1ccc(Cl)cc1Cl)c1ccc(Cl)cc1 [Example 123] | 1 to 10 | 10 to 25
2 | Cc1ccc(C=C(SCc2ccc(Cl)cc2Cl)C(=O)c2ccc(Cl)cc2)s1 [Example 124] | 50 to 100 | 50 to 100
3 | COc1ccc(C=C(SCc2ccccc2Cl)C(=O)c2ccc(Cl)cc2)c(OC)c1OC [Example 125] | 1 to 10 | 10 to 25
4 | COc1cc(OC)c(C=C(SCc2ccccc2Cl)C(=O)c2ccc(Cl)cc2)c(OC)c1 [Example 126] | 10 to 25 | 50 to 100
5 | CN(C)c1ccc(C=C(SCc2ccccc2Cl)C(=O)c2ccc(Cl)cc2)cc1 [Example 127] | 50 to 100 | > 100
6 | O=C(C(=Cc1ccc(OCc2ccccc2)cc1)SCc1ccccc1Cl)c1ccccc1Cl [Example 128] | 1 to 10 | 1 to 10
7 | O=C(C(=Cc1ccc(Br)cc1)SCc1ccccc1Cl)c1ccc(Cl)cc1 [Example 129] | 1 to 10 | 10 to 25
8 | O=C(C(=Cc1ccc(Cl)cc1)SCc1ccccc1Cl)c1ccc(Cl)cc1 [Example 130] | 1 to 10 | 10 to 25
9 | CCOc1ccc(C=C(SCc2ccccc2Cl)C(=O)c2ccc(Cl)cc2)cc1OC [Example 131] | 1 to 10 | 50 to 100
10 | O=C(C(=Cc1ccc(O)c([N+](=O)[O-])c1)SCc1ccccc1Cl)c1ccc(Cl)cc1 [Example 132] | 10 to 25 | 10 to 25
11 | COc1ccccc1C=C(SCc1ccccc1F)C(=O)c1ccc(Cl)cc1 [Example 133] | 1 to 10 | 10 to 25
12 | Cc1ccsc1C=C(SCc1ccccc1F)C(=O)c1ccc(Cl)cc1 [Example 134] | 50 to 100 | 50 to 100
13 | O=C(C(=Cc1c(O)cc(O)cc1O)SCc1ccc(Cl)c(Cl)c1)c1ccc(Cl)cc1 [Example 136] | 25 to 50 | 25 to 50
14 | COc1cc(OC)c(C=C(SCc2ccc(Cl)c(Cl)c2)C(=O)c2ccc(Cl)cc2)c(OC)c1 [Example 137] | 10 to 25 | 10 to 25
15 | COc1ccc(OC)c(C=C(SCc2ccc(Cl)c(Cl)c2)C(=O)c2ccc(Cl)cc2)c1 [Example 138] | 10 to 25 | 10 to 25
16 | O=C(C(=Cc1ccccc1OCc1ccccc1)SCc1ccc(Cl)c(Cl)c1)c1ccc(Cl)cc1 [Example 139] | 10 to 25 | 10 to 25
17 | CN(C)c1ccc(C=C(SCc2ccc(Cl)c(Cl)c2)C(=O)c2ccc(Cl)cc2)cc1 [Example 142] | 50 to 100 | 50 to 100
18 | CCOc1ccc(C=C(SCc2ccc(Cl)c(Cl)c2)C(=O)c2ccc(Cl)cc2)cc1OC [Example 143] | 1 to 10 | 25 to 50
19 | O=C(C(=Cc1ccc(O)cc1)SCc1ccc(Cl)c(Cl)c1)c1ccc(Cl)cc1 [Example 144] | 1 to 10 | 1 to 10
20 | O=C(C(=Cc1ccc(O)cc1O)SCc1cccc(Cl)c1)c1ccc(Br)cc1 [Example 145] | 25 to 50 | 50 to 100
21 | O=C(C(=Cc1ccc(OCc2ccccc2)cc1)SCc1cccc(Cl)c1)c1ccc(Br)cc1 [Example 146] | 1 to 10 | 1 to 10

Row | Structure (SMILES) | IC50 [1] [µM] | IC50 (DU145 (prostate cancer)) [µM]
22 | O=C(C(=Cc1ccc([N+](=O)[O-])c(O)c1)SCc1ccc(Br)cc1)c1c(F)c(F)c(F)c(F)c1F [Example 152] | 1 to 10 | 10 to 25
23 | O=C(C(=Cc1ccc([N+](=O)[O-])c(O)c1)SCc1ccc(Br)cc1)c1ccc([N+](=O)[O-])c(Cl)c1 [Example 154] | 1 to 10 | 1 to 10
24 | O=C(O)c1ccc(C(=O)C(=Cc2ccc([N+](=O)[O-])c(O)c2)SCc2ccc(Br)cc2)cc1 [Example 156] | 1 to 10 | 10 to 25
25 | N#Cc1ccc(C(=O)C(=Cc2ccc([N+](=O)[O-])c(O)c2)SCc2ccc(Br)cc2)cc1 [Example 157] | 1 to 10 | 1 to 10
26 | O=C(C(=Cc1ccc([N+](=O)[O-])c(O)c1)SCc1ccc(Br)cc1)c1ccc([N+](=O)[O-])cc1 [Example 158] | 1 to 10 | 1 to 10
27 | O=C(/C(=C\c1ccc([N+](=O)[O-])c(O)c1)SCc1ccc(Br)cc1)c1ccc(N2CCCC2)cc1 [Example 159] | > 100 | > 100
28 | O=C(/C(=C\c1ccc([N+](=O)[O-])c(O)c1)SCc1ccc(Br)cc1)c1ccc(C(F)(F)F)cc1 [Example 160] | 1 to 10 | 1 to 10
29 | O=C(/C(=C\c1ccc([N+](=O)[O-])c(O)c1)SCc1ccc(Br)cc1)c1cc(Cl)ccc1O [Example 161] | 10 to 25 | 10 to 25
30 | CN(C)c1ccc(/C=C(/SCc2ccc(Br)cc2)C(=O)c2ccc(C(=O)O)cc2)cc1 [Example 164] | 25 to 50 | 50 to 100
31 | O=C(O)c1ccc(C(=O)/C(=C\c2ccc(Cl)c([N+](=O)[O-])c2)SCc2ccc(Br)cc2)cc1 [Example 168] | ≤ 1 | 1 to 10
32 | O=C(/C(=C\c1ccc(Cl)cc1)SCc1ccc(Br)cc1)c1ccccc1Cl [Example 169] | 1 to 10 | 25 to 50
33 | O=C(/C(=C\c1ccc(O)c([N+](=O)[O-])c1)SCc1ccc(Br)cc1)c1c(F)c(F)c(F)c(F)c1F [Example 175] | 10 to 25 | 10 to 25
34 | O=C(/C(=C\c1ccc(O)c([N+](=O)[O-])c1)SCc1ccc(Br)cc1)c1ccc(Cl)cc1Cl [Example 176] | 1 to 10 | 10 to 25
35 | O=C(/C(=C\c1ccc(O)c([N+](=O)[O-])c1)SCc1ccc(Br)cc1)c1ccc(O)cc1O [Example 177] | 50 to 100 | > 100
36 | COc1cc(C(=O)/C(=C\c2ccc(O)c([N+](=O)[O-])c2)SCc2ccc(Br)cc2)cc(OC)c1OC [Example 178] | 1 to 10 | 1 to 10
37 | O=C(/C(=C\c1ccc(O)c([N+](=O)[O-])c1)SCc1ccc(Br)cc1)c1ccc([N+](=O)[O-])c(Cl)c1 [Example 179] | 1 to 10 | 1 to 10
38 | N#Cc1ccc(C(=O)/C(=C\c2ccc(O)c([N+](=O)[O-])c2)SCc2ccc(Br)cc2)cc1 [Example 182] | 10 to 25 | 10 to 25
39 | O=C(/C(=C\c1ccc(O)c([N+](=O)[O-])c1)SCc1ccc(Br)cc1)c1ccc([N+](=O)[O-])cc1 [Example 184] | 10 to 25 | 10 to 25
40 | O=C(/C(=C\c1ccc(O)c([N+](=O)[O-])c1)SCc1ccc(Br)cc1)c1ccc(N2CCCC2)cc1 [Example 185] | > 100 | > 100
41 | O=C(/C(=C\c1ccc(O)c([N+](=O)[O-])c1)SCc1ccc(Br)cc1)c1ccc(C(F)(F)F)cc1 [Example 186] | 1 to 10 | 10 to 25

Results, then the molecule that gave them:

Row | IC50 [1] [µM] | IC50 (DU145 (prostate cancer)) [µM] | Structure (SMILES)
42 | 10 to 25 | 1 to 10 | O=C(C(=Cc1cc(Br)c(O)c(Br)c1)SCc1ccc(Br)cc1)c1ccc(Br)cc1 [Example 147]
43 | 10 to 25 | 10 to 25 | O=C(C(=Cc1cc(Cl)c(O)c(Cl)c1)SCc1ccc(Br)cc1)c1ccc(Br)cc1 [Example 148]
44 | 10 to 25 | 10 to 25 | Cc1cc(C)cc(C=C(SCc2ccc(Br)cc2)C(=O)c2ccc(Cl)cc2)c1 [Example 149]
45 | 25 to 50 | 25 to 50 | O=C(O)c1ccc(C(=O)C(=Cc2ccc(O)c(Br)c2)SCc2ccc(Br)cc2)cc1 [Example 150]
46 | 25 to 50 | 10 to 25 | O=C(C(=Cc1ccc(O)c(C(=O)O)c1)SCc1ccc(Br)cc1)c1ccc(Br)cc1 [Example 151]
47 | 1 to 10 | 10 to 25 | O=C(C(=Cc1ccc([N+](=O)[O-])c(O)c1)SCc1ccc(Br)cc1)c1ccc(Br)cc1 [Example 155]
48 | 1 to 10 | 1 to 10 | CCN(CC)CCNC(=O)c1c(C)[nH]c(/C=C(/SCc2ccc(Br)cc2)C(=O)c2ccc(Br)cc2)c1C [Example 162]
49 | 50 to 100 | 50 to 100 | CCN(CC)CCNC(=O)c1c(C)[nH]c(/C=C(/SCc2ccc(Br)cc2)C(=O)c2ccc(C(=O)O)cc2)c1C [Example 163]
50 | 1 to 10 | 1 to 10 | O=C(O)c1ccc(C(=O)/C(=C\c2ccc(Br)c([N+](=O)[O-])c2)SCc2ccc(Br)cc2)cc1 [Example 165]
51 | 1 to 10 | 1 to 10 | O=C(O)c1ccc(C(=O)/C(=C\c2ccc(Br)cc2)SCc2ccc(Br)cc2)cc1 [Example 166]
52 | 50 to 100 | 50 to 100 | Cc1[nH]c(/C=C(/SCc2ccc(Br)cc2)C(=O)c2ccc(Br)cc2)c(C)c1C(=O)O [Example 167]
53 | 25 to 50 | 50 to 100 | CCOC(=O)c1c(C)[nH]c(/C=C(/SCc2ccc(Br)cc2)C(=O)c2ccc(Br)cc2)c1C [Example 170]
54 | 1 to 10 | 1 to 10 | O=C(O)c1ccc(C(=O)/C(=C\c2ccc(F)c([N+](=O)[O-])c2)SCc2ccc(Br)cc2)cc1 [Example 172]
55 | 1 to 10 | 1 to 10 | O=C(/C(=C\c1cc(I)c(O)c(I)c1)SCc1ccc(Br)cc1)c1ccc(Br)cc1 [Example 173]
56 | 25 to 50 | 25 to 50 | COc1cc(/C=C(/SCc2ccc(Br)cc2)C(=O)c2ccc(Br)cc2)cc([N+](=O)[O-])c1O [Example 174]
57 | 50 to 100 | 50 to 100 | O=C(O)c1ccc(C(=O)/C(=C\c2ccc(O)c([N+](=O)[O-])c2)SCc2ccc(Br)cc2)cc1 [Example 181]
58 | 10 to 25 | 10 to 25 | COc1ccc(C(=O)/C(=C\c2ccc(O)c([N+](=O)[O-])c2)SCc2ccc(Br)cc2)cc1 [Example 183]
